Measured values from patent US9763572B2, “Quantitative pupillometry as a bedside predictor of postoperative respiratory depression” (Children's Hospital Medical Center, priority 2015, dated 2017).

Experiments:
[1] = Blood morphine, M3G and M6G concentrations in the recovery room (LC-MS/MS) in children undergoing tonsillectomy; details: mean±SD
[2] = tested on: children undergoing tonsillectomy; assay: Postoperative respiratory depression and its association with ABCB1 genetic variants in children given morphine; details: per added copy of minor allele (G) of ABCB1 rs9282564; 263 children; 95% CI: 2.1-10.8, p=0.0002
pupil [3] = assay: Serial quantitative pupillometry after intraoperative morphine in the pediatric study; assay type: in vivo, children
pupil [4] = details: used as prophylactic antiemetic; cited from earlier work
[5] = children who did not have respiratory depression with prolonged PACU stay
[6] = children who had respiratory depression and prolonged PACU stay due to respiratory depression

Row | Compound | levels in the recovery room [1, 5] [ng/mL] | levels in the recovery room [1, 6] [ng/mL] | increase in odds of a prolonged hospital stay due to postoperative respiratory depression [2] [fold] | pupillary maximum constriction velocity (MCV) vs blood morphine concentration (pupil [3]; FIG. 3, perioperative time points) | pupillary measures (maximum and minimum pupillary sizes, constriction percentage, maximum constriction velocity) (pupil [3]; after intraoperative morphine bolus, under general anesthesia, FIGS. 2A-2D) | PACU pupillary measures compared to the baseline values (pupil [3]; recovery room (PACU) vs preoperative baseline) | interference with quantitative pupillometry responses (pupil [4])
1 | CN1CC[C@]23c4c5ccc(O[C@@H]6O[C@H](C(=O)O)[C@@H](O)[C@H](O)[C@H]6O)c4O[C@H]2[C@@H](O)C=C[C@H]3[C@H]1C5 [M3G, Morphine-3 Glucuronide] | 0.0607 ± 0.0451 | 0.0431 ± 0.037 | – | – | – | – | –
2 | CN1CC[C@]23c4c5ccc(O)c4O[C@H]2[C@@H](O[C@@H]2O[C@H](C(=O)O)[C@@H](O)[C@H](O)[C@H]2O)C=C[C@H]3[C@H]1C5 [M6G, Morphine-6 Glucuronide] | 0.0117 ± 0.0071 | 0.0091 ± 0.0039 | – | – | – | – | –
3 | CN1CC[C@]23c4c5ccc(O)c4O[C@H]2[C@@H](O)C=C[C@H]3[C@H]1C5 [morphine] | 8.4 ± 7.9 | 2.25 ± 2.3 | 4.7 | decreased as blood morphine concentration increased | incremental reductions in all these pupillary measures | residual depressive effects | –
4 | Cc1nccn1CC1CCc2c(c3ccccc3n2C)C1=O (centres unmarked) [ondansetron] | – | – | – | – | – | – | does not interfere with quantitative pupillometry responses
